Converted amounts (≈) assume the structure as drawn.
Tests used:
Test in all cases: MIC, CLSI broth microdilution
Type in all cases: cell-based
[1] = test system: Klebsiella oxytoca KPC-2, TEM-1; conditions: KPC-2, TEM-1, read-out: MIC
Method: (§1) Gram-negative and Gram-positive bacterial strains used during the in vitro minimum inhibitory concentration (MIC) determination were obtained either from the American Type Culture Collection (ATCC) or from clinical specimens. All strains were characterized genotypically and the respective antibiotic resistance markers for each strain were identified.
(§2) Isolates were sub-cultured onto appropriate media and stocked in skim milk at −80° C. Following two subcultures from frozen stock, in vitro antimicrobial susceptibility testing was performed using the Clinical and Laboratory Standards Institute (CLSI) broth microdilution method. Briefly, fresh cultures were suspended in culture media to give a final stock inoculum size of 5×10^7 colony forming units per milliliter of broth (CFU/mL). […] 100 μL of the stock solutions were added to the first wells in a 96-well plate and were then diluted using a 2-fold dilution method to give a range of 32-0.025 μg/mL. 100 μL of the bacterial suspensions were then added to the 96-well plates to give a final working inoculum size of 5×10^5 CFU/mL. The final compound concentration range was 16-0.0125 μg/mL. […] MICs for comparator agents were determined using custom-designed, in-house prepared 96-well broth microdilution panels.

[2] = test system: Acinetobacter baumannii ATCC 19606; conditions: ATCC19606
Method: as §1, §2

[3] = test system: Escherichia coli pSMART_Ecloacae_AmpC
Method: as §1, §2

[4] = test system: Escherichia coli CTX-M-15; conditions: CTXM15
Method: as §1, §2

[5] = test system: Escherichia coli ATCC 25922; conditions: ATCC25922
Method: as §1, §2

[6] = test system: Pseudomonas aeruginosa AmpC overexpressed
Method: as §1, §2

[7] = test system: Escherichia coli pSMART_Cfreundii_AmpC
Method: as §1, §2

[8] = test system: Klebsiella pneumoniae KPC-2; conditions: KPC2
Method: as §1, §2

[9] = test system: Citrobacter freundii species complex OXA-181; conditions: Citrobacter freundii species complex, OXA-181; read-out: MIC
Method: as §1, §2

[10] = test system: Escherichia coli Empty pSMART plasmid
Method: as §1, §2

[11] = test system: Escherichia coli Isogenic TEM-26
Method: as §1, §2

Escherichia coli SHV-12 = conditions: SHV12
Method: as §1, §2

[12] = test system: Enterobacter cloacae species complex NDM-1
Method: as §1, §2

[13] = test system: Serratia marcescens AmpC overexpressed
Method: as §1, §2

[14] = test system: Serratia marcescens SME-2; conditions: SME2
Method: as §1, §2

[15] = test system: Klebsiella pneumoniae OXA-163, OXA-1_OXA-30, SHV-1, TEM-1
Method: as §1, §2

Escherichia coli CMY-2 = conditions: CMY2
Method: as §1, §2

[16] = test system: Klebsiella aerogenes VIM-1, SHV-12
Method: as §1, §2

[17] = test system: Klebsiella pneumoniae OXA-48, SHV-1
Method: as §1, §2

[18] = test system: Pseudomonas aeruginosa ATCC 27853; conditions: ATCC27853
Method: as §1, §2

[19] = test system: Pseudomonas aeruginosa OprD negative
Method: as §1, §2

[20] = test system: Klebsiella pneumoniae KPC-3; conditions: KPC3, KPC-3, read-out: MIC
Method: as §1, §2

[21] = test system: Klebsiella pneumoniae SHV-12; conditions: SHV12, SHV-12, read-out: MIC
Method: as §1, §2

[22] = test system: Escherichia coli Isogenic TEM-10
Method: as §1, §2

Row | Structure (SMILES) | MIC [1] | MIC [2] | MIC [3] | MIC [4] | MIC [5] | MIC [6] | MIC [7] | MIC [8] | MIC [9] | MIC [10] | MIC [11] | MIC (Escherichia coli SHV-12) | MIC [12] | MIC [13] | MIC [14] | MIC [15] | MIC (Escherichia coli CMY-2) | MIC [16] | MIC [17] | MIC [18] | also measured
1 | Nc1nc(/C(=N/OC2(C(=O)O)COC2)C(=O)N[C@H]2CON(C3(C(=O)O)C[C@H](N4C(=O)c5cc(O)c(O)cc5C4=O)C(=O)O3)C2=O)cs1 (stereo partly drawn) [Cmpd 5, (4S)-2-[(4S)-4-{[(2Z)-2-(2-amino-1,3-thiazol-4-yl)-2-{[(3-carboxyoxetan-3-yl)oxy]imino}acetyl]amino}-3-oxo-1,2-oxazolidin-2-yl]-4-(5,6-dihydroxy-1,3-dioxo-1,3-dihydro-2H-isoindol-2-yl)-5-oxooxolane-2-carboxylic acid] | ≤ 0.015 µg/mL | 0.12 µg/mL (≈ 0.177 µM) | 0.06 µg/mL (≈ 0.0887 µM) | 2 µg/mL (≈ 2.96 µM) | 0.25 µg/mL (≈ 0.37 µM) | 1 µg/mL (≈ 1.48 µM) | 0.25 µg/mL (≈ 0.37 µM) | 0.06 µg/mL (≈ 0.0887 µM) | 0.06 µg/mL (≈ 0.0887 µM) | ≤ 0.015 µg/mL | 0.03 µg/mL (≈ 0.0443 µM) | 1 µg/mL (≈ 1.48 µM) | 0.25 µg/mL (≈ 0.37 µM) | 0.25 µg/mL (≈ 0.37 µM) | 0.12 µg/mL (≈ 0.177 µM) | 0.06 µg/mL (≈ 0.0887 µM) | 4 µg/mL (≈ 5.91 µM) | 2 µg/mL (≈ 2.96 µM) | ≤ 0.015 µg/mL | 0.25 µg/mL (≈ 0.37 µM) | MIC [19]: 2 µg/mL (≈ 2.96 µM); MIC [20]: 0.03 µg/mL (≈ 0.0443 µM); MIC [21]: 0.03 µg/mL (≈ 0.0443 µM); MIC [22]: 0.03 µg/mL (≈ 0.0443 µM)
2 | Nc1nc(/C(=N/OC2(C(=O)O)CCC(F)(Cl)CC2)C(=O)N[C@H]2CON(C3(C(=O)O)C[C@H](N4C(=O)c5cc(O)c(O)cc5C4=O)C(=O)O3)C2=O)cs1 (stereo partly drawn) [Cmpd 11, (4S)-2-[(4S)-4-{[(2Z)-2-(2-amino-1,3-thiazol-4-yl)-2-{[(1-carboxy-4-chloro-4-fluorocyclohexyl)oxy]imino}acetyl]amino}-3-oxo-1,2-oxazolidin-2-yl]-4-(5,6-dihydroxy-1,3-dioxo-1,3-dihydro-2H-isoindol-2-yl)-5-oxooxolane-2-carboxylic acid] | ≤ 0.015 µg/mL | 0.25 µg/mL (≈ 0.331 µM) | 0.06 µg/mL (≈ 0.0795 µM) | 2 µg/mL (≈ 2.65 µM) | 0.12 µg/mL (≈ 0.159 µM) | 2 µg/mL (≈ 2.65 µM) | 0.06 µg/mL (≈ 0.0795 µM) | 0.03 µg/mL (≈ 0.0397 µM) | 0.03 µg/mL (≈ 0.0397 µM) | ≤ 0.015 µg/mL | 0.03 µg/mL (≈ 0.0397 µM) | 2 µg/mL (≈ 2.65 µM) | 2 µg/mL (≈ 2.65 µM) | 0.06 µg/mL (≈ 0.0795 µM) | 0.06 µg/mL (≈ 0.0795 µM) | 0.12 µg/mL (≈ 0.159 µM) | 1 µg/mL (≈ 1.32 µM) | 0.12 µg/mL (≈ 0.159 µM) | ≤ 0.015 µg/mL | 0.25 µg/mL (≈ 0.331 µM) | MIC [19]: 0.25 µg/mL (≈ 0.331 µM); MIC [20]: 0.06 µg/mL (≈ 0.0795 µM); MIC [21]: 0.03 µg/mL (≈ 0.0397 µM); MIC [22]: 0.06 µg/mL (≈ 0.0795 µM)
3 | Nc1nc(/C(=N/OC2(C(=O)O)CC3CCC(C2)O3)C(=O)N[C@H]2CON(C3(C(=O)O)C[C@H](N4C(=O)c5cc(O)c(O)nc5C4=O)C(=O)O3)C2=O)cs1 (stereo partly drawn) [Cmpd 27, 3-({(Z)-[1-(2-amino-1,3-thiazol-4-yl)-2-({(4S)-2-[(4S)-2-carboxy-4-(2,3-dihydroxy-5,7-dioxo-5,7-dihydro-6H-pyrrolo[3,4-b]pyridin-6-yl)-5-oxooxolan-2-yl]-3-oxo-1,2-oxazolidin-4-yl}amino)-2-oxoethylidene]amino}oxy)-8-oxabicyclo[3.2.1]octane-3-carboxylic acid] | 0.0149 µg/mL (≈ 0.0204 µM) | 1 µg/mL (≈ 1.37 µM) | 0.25 µg/mL (≈ 0.342 µM) | 8 µg/mL (≈ 10.9 µM) | 0.5 µg/mL (≈ 0.683 µM) | 4 µg/mL (≈ 5.47 µM) | 0.25 µg/mL (≈ 0.342 µM) | 0.06 µg/mL (≈ 0.082 µM) | 0.12 µg/mL (≈ 0.164 µM) | 0.25 µg/mL (≈ 0.342 µM) | 0.12 µg/mL (≈ 0.164 µM) | 8 µg/mL (≈ 10.9 µM) | 2 µg/mL (≈ 2.73 µM) | 0.5 µg/mL (≈ 0.683 µM) | 1 µg/mL (≈ 1.37 µM) | 0.25 µg/mL (≈ 0.342 µM) | 4 µg/mL (≈ 5.47 µM) | 0.12 µg/mL (≈ 0.164 µM) | 0.03 µg/mL (≈ 0.041 µM) | 4 µg/mL (≈ 5.47 µM) | MIC [19]: 2 µg/mL (≈ 2.73 µM); MIC [20]: 0.12 µg/mL (≈ 0.164 µM); MIC [21]: 0.12 µg/mL (≈ 0.164 µM); MIC [22]: 0.25 µg/mL (≈ 0.342 µM)
4 | Nc1nc(/C(=N/OC2(C(=O)O)CCC2)C(=O)N[C@H]2CON(C3(C(=O)O)C[C@H](N4C(=O)c5cc(O)c(O)cc5C4=O)C(=O)O3)C2=O)cs1 (stereo partly drawn) [Cmpd 4, (4S)-2-[(4S)-4-{[(2Z)-2-(2-amino-1,3-thiazol-4-yl)-2-{[(1-carboxycyclobutyl)oxy]imino}acetyl]amino}-3-oxo-1,2-oxazolidin-2-yl]-4-(5,6-dihydroxy-1,3-dioxo-1,3-dihydro-2H-isoindol-2-yl)-5-oxooxolane-2-carboxylic acid] | ≤ 0.015 µg/mL | 0.12 µg/mL (≈ 0.178 µM) | 0.06 µg/mL (≈ 0.0889 µM) | 1 µg/mL (≈ 1.48 µM) | 0.25 µg/mL (≈ 0.371 µM) | 1 µg/mL (≈ 1.48 µM) | 0.12 µg/mL (≈ 0.178 µM) | 0.06 µg/mL (≈ 0.0889 µM) | 0.06 µg/mL (≈ 0.0889 µM) | ≤ 0.015 µg/mL | 0.06 µg/mL (≈ 0.0889 µM) | 1 µg/mL (≈ 1.48 µM) | 0.25 µg/mL (≈ 0.371 µM) | 0.12 µg/mL (≈ 0.178 µM) | 0.06 µg/mL (≈ 0.0889 µM) | 0.06 µg/mL (≈ 0.0889 µM) | 2 µg/mL (≈ 2.96 µM) | 1 µg/mL (≈ 1.48 µM) | ≤ 0.015 µg/mL | 0.25 µg/mL (≈ 0.371 µM) | MIC [19]: 1 µg/mL (≈ 1.48 µM); MIC [20]: 0.03 µg/mL (≈ 0.0445 µM); MIC [21]: 0.03 µg/mL (≈ 0.0445 µM); MIC [22]: 0.03 µg/mL (≈ 0.0445 µM)
5 | Nc1nc(/C(=N/OC2(C(=O)O)CCOCC2)C(=O)N[C@H]2CON(C3(C(=O)O)C[C@H](N4Cc5cc(O)c(O)cc5C4=O)C(=O)O3)C2=O)cs1 (stereo partly drawn) [Cmpd 29, 4-({(Z)-[1-(2-amino-1,3-thiazol-4-yl)-2-({(4S)-2-[(4S)-2-carboxy-4-(5,6-dihydroxy-1-oxo-1,3-dihydro-2H-isoindol-2-yl)-5-oxooxolan-2-yl]-3-oxo-1,2-oxazolidin-4-yl}amino)-2-oxoethylidene]amino}oxy)oxane-4-carboxylic acid] | 0.0149 µg/mL (≈ 0.0216 µM) | 0.12 µg/mL (≈ 0.174 µM) | 0.12 µg/mL (≈ 0.174 µM) | 2 µg/mL (≈ 2.9 µM) | 0.5 µg/mL (≈ 0.724 µM) | 2 µg/mL (≈ 2.9 µM) | 0.25 µg/mL (≈ 0.362 µM) | 0.0149 µg/mL (≈ 0.0216 µM) | 0.12 µg/mL (≈ 0.174 µM) | 0.5 µg/mL (≈ 0.724 µM) | 0.03 µg/mL (≈ 0.0434 µM) | 2 µg/mL (≈ 2.9 µM) | 4 µg/mL (≈ 5.79 µM) | 0.25 µg/mL (≈ 0.362 µM) | 0.25 µg/mL (≈ 0.362 µM) | 0.25 µg/mL (≈ 0.362 µM) | 2 µg/mL (≈ 2.9 µM) | 0.25 µg/mL (≈ 0.362 µM) | 0.03 µg/mL (≈ 0.0434 µM) | 0.5 µg/mL (≈ 0.724 µM) | MIC [19]: 0.5 µg/mL (≈ 0.724 µM); MIC [20]: 0.06 µg/mL (≈ 0.0869 µM); MIC [21]: 0.06 µg/mL (≈ 0.0869 µM); MIC [22]: 0.03 µg/mL (≈ 0.0434 µM)

Reference: patent US11780832B2, “Lactivicin compounds, their preparation and use as antibacterial agents” (priority 2021, dated 2023)
